Several values for one entry are separate records, joined by “and”; a condition that tells them apart may be missing. Equal values may be shown once.
Assay: Organ distribution and brain regional uptake of [18F]ACF in rats

CN(C)Cc1ccccc1Sc1cc([18F])c(Cl)cc1N [[^18F]ACF]
Organ distribution: Brain (30 min after iv injection): 1.28 ± 0.14 % dose/organ
Organ distribution: Heart (30 min after iv injection): 0.18 ± 0.02 % dose/organ
Organ distribution: Kidney (30 min after iv injection): 2.64 ± 0.79 % dose/organ
Organ distribution: Liver (30 min after iv injection): 15.20 ± 1.20 % dose/organ
Organ distribution: Lung (30 min after iv injection): 1.76 ± 0.20 % dose/organ
Organ distribution: Muscle (30 min after iv injection): 10.70 ± 1.68 % dose/organ
Organ distribution: Skin (30 min after iv injection): 6.51 ± 0.66 % dose/organ
Organ distribution: Spleen (30 min after iv injection): 0.29 ± 0.09 % dose/organ
Ratio to Cerebellum: Cerebellum (30 min after iv injection): 1.00 ± 0.00
Ratio to Cerebellum: Cortex (30 min after iv injection): 1.69 ± 0.20
Ratio to Cerebellum: Hippocampus (30 min after iv injection): 1.89 ± 0.24
Ratio to Cerebellum: Hypothalamus (30 min after iv injection): 2.29 ± 0.06
Ratio to Cerebellum: Remainder (30 min after iv injection): 1.80 ± 0.11
Ratio to Cerebellum: Striatum (30 min after iv injection): 2.06 ± 0.19
Regional brain distribution: Cerebellum (30 min after iv injection): 0.37 ± 0.07 % dose/g
Regional brain distribution: Cortex (30 min after iv injection): 0.62 ± 0.07 % dose/g
Regional brain distribution: Hippocampus (30 min after iv injection): 0.70 ± 0.06 % dose/g
Regional brain distribution: Hypothalamus (30 min after iv injection): 0.85 ± 0.14 % dose/g
Regional brain distribution: Remainder (30 min after iv injection): 0.67 ± 0.09 % dose/g
Regional brain distribution: Striatum (30 min after iv injection): 0.76 ± 0.08 % dose/g
Organ distribution: Blood (60 min after iv injection): 4.65 ± 0.46 % dose/organ
Organ distribution: Bone (60 min after iv injection): 0.08 ± 0.02 % dose/organ
Organ distribution: Brain (60 min after iv injection): 0.69 ± 0.09 % dose/organ
Organ distribution: Heart (60 min after iv injection): 0.11 ± 0.01 % dose/organ
Organ distribution: Kidney (60 min after iv injection): 1.38 ± 0.25 % dose/organ
Organ distribution: Liver (60 min after iv injection): 10.30 ± 2.50 % dose/organ
Organ distribution: Lung (60 min after iv injection): 0.73 ± 0.08 % dose/organ
Organ distribution: Muscle (60 min after iv injection): 7.69 ± 0.29 % dose/organ
Organ distribution: Skin (60 min after iv injection): 5.97 ± 1.64 % dose/organ
Organ distribution: Spleen (60 min after iv injection): 0.13 ± 0.02 % dose/organ
Ratio to Cerebellum: Cerebellum (60 min after iv injection): 1.00 ± 0.00
Ratio to Cerebellum: Cortex (60 min after iv injection): 2.10 ± 0.47
Ratio to Cerebellum: Hippocampus (60 min after iv injection): 2.91 ± 0.64
Ratio to Cerebellum: Hypothalamus (60 min after iv injection): 3.53 and 3.53 ± 0.33
Ratio to Cerebellum: Remainder (60 min after iv injection): 2.56 ± 0.44
Ratio to Cerebellum: Striatum (60 min after iv injection): 2.88 ± 0.52
Regional brain distribution: Cerebellum (60 min after iv injection): 0.15 ± 0.03 % dose/g
Regional brain distribution: Cortex (60 min after iv injection): 0.33 ± 0.13 % dose/g
Regional brain distribution: Hippocampus (60 min after iv injection): 0.45 ± 0.13 % dose/g
Regional brain distribution: Hypothalamus (60 min after iv injection): 0.54 ± 0.13 % dose/g
Regional brain distribution: Remainder (60 min after iv injection): 0.39 ± 0.03 % dose/g
Regional brain distribution: Striatum (60 min after iv injection): 0.45 ± 0.14 % dose/g
Organ distribution: Blood (120 min after iv injection): 3.20 ± 0.57 % dose/organ
Organ distribution: Bone (120 min after iv injection): 0.28 ± 0.06 % dose/organ
Organ distribution: Brain (120 min after iv injection): 0.21 ± 0.03 % dose/organ
Organ distribution: Heart (120 min after iv injection): 0.06 ± 0.01 % dose/organ
Organ distribution: Kidney (120 min after iv injection): 0.78 ± 0.15 % dose/organ
Organ distribution: Liver (120 min after iv injection): 5.90 ± 1.03 % dose/organ
Organ distribution: Lung (120 min after iv injection): 0.32 ± 0.06 % dose/organ
Organ distribution: Muscle (120 min after iv injection): 4.02 ± 1.22 % dose/organ
Organ distribution: Skin (120 min after iv injection): 2.61 ± 0.17 % dose/organ
Organ distribution: Spleen (120 min after iv injection): 0.06 ± 0.02 % dose/organ
Ratio to Cerebellum: Cerebellum (120 min after iv injection): 1.00 ± 0.00
Ratio to Cerebellum: Cortex (120 min after iv injection): 1.77 ± 0.04
Ratio to Cerebellum: Hippocampus (120 min after iv injection): 2.67 ± 0.15
Ratio to Cerebellum: Hypothalamus (120 min after iv injection): 3.23 ± 0.21
Ratio to Cerebellum: Remainder (120 min after iv injection): 2.34 ± 0.09
Ratio to Cerebellum: Striatum (120 min after iv injection): 2.97 ± 0.16
Regional brain distribution: Cerebellum (120 min after iv injection): 0.05 ± 0.01 % dose/g
Regional brain distribution: Cortex (120 min after iv injection): 0.09 ± 0.01 % dose/g
Regional brain distribution: Hippocampus (120 min after iv injection): 0.14 ± 0.02 % dose/g
Regional brain distribution: Hypothalamus (120 min after iv injection): 0.17 ± 0.01 % dose/g
Regional brain distribution: Remainder (120 min after iv injection): 0.12 ± 0.01 % dose/g
Regional brain distribution: Striatum (120 min after iv injection): 0.15 ± 0.02 % dose/g
Organ distribution: Blood (240 min after iv injection): 2.33 ± 0.34 % dose/organ
Organ distribution: Bone (240 min after iv injection): 0.27 ± 0.07 % dose/organ
Organ distribution: Brain (240 min after iv injection): 0.06 ± 0.01 % dose/organ
Organ distribution: Heart (240 min after iv injection): 0.04 ± 0.01 % dose/organ
Organ distribution: Kidney (240 min after iv injection): 0.51 ± 0.07 % dose/organ
Organ distribution: Liver (240 min after iv injection): 3.55 ± 0.35 % dose/organ
Organ distribution: Lung (240 min after iv injection): 0.15 ± 0.02 % dose/organ
Organ distribution: Muscle (240 min after iv injection): 2.08 ± 0.05 % dose/organ
Organ distribution: Skin (240 min after iv injection): 1.53 ± 0.17 % dose/organ
Organ distribution: Spleen (240 min after iv injection): 0.03 ± 0.00 % dose/organ
Ratio to Cerebellum: Cerebellum (240 min after iv injection): 1.00 ± 0.00
Ratio to Cerebellum: Cortex (240 min after iv injection): 1.52 ± 0.21
Ratio to Cerebellum: Hippocampus (240 min after iv injection): 1.99 ± 0.23
Ratio to Cerebellum: Hypothalamus (240 min after iv injection): 2.37 and 2.37 ± 0.23
Ratio to Cerebellum: Remainder (240 min after iv injection): 1.58 ± 0.13
Ratio to Cerebellum: Striatum (240 min after iv injection): 2.35 ± 0.05
Regional brain distribution: Cerebellum (240 min after iv injection): 0.02 ± 0.00 % dose/g
Regional brain distribution: Cortex (240 min after iv injection): 0.03 ± 0.01 % dose/g
Regional brain distribution: Hippocampus (240 min after iv injection): 0.04 ± 0.01 % dose/g
Regional brain distribution: Hypothalamus (240 min after iv injection): 0.05 ± 0.00 % dose/g
Regional brain distribution: Remainder (240 min after iv injection): 0.03 ± 0.00 % dose/g
Regional brain distribution: Striatum (240 min after iv injection): 0.05 ± 0.00 % dose/g
Time of peak specific uptake in the hypothalamus region (after injection): 60 to 120 min
Initial brain uptake (iv): 1.71±0.45 % dose/g

Source: US7041851B2, “Fluorinated phenyl thiophenyl derivatives and their use for imaging serotonin transporters” (The Trustees of the University of Pennsylvania, priority 2002, dated 2006)
